Source: PMC8022858, “Discovery of bone morphogenetic protein 7-derived peptide sequences that attenuate the human osteoarthritic chondrocyte phenotype” (Molecular Therapy. Methods & Clinical Development, 2021)

Test system: HACs in OA synovial fluid (SF)
Test: Peptide bioactivity on HACs cultured in OA synovial fluid (gene expression, sGAG, ALP activity, PGE2)
Type: cell-based, human
Conditions: 100 nM peptide, 20% (v/v) OA SF; for sGAG content of HAC cultures: 24 h (Figure 3D); for retainment of bioactivity on ALP activity in OA SF environment: 24 h (Figure 3E); for retainment of bioactivity on PGE2 secretion in OA SF environment: 24 h (Figure 3F); for expression of NKX3-2 / OA SF-induced expression of RUNX2, COL10A1, ALPL, MMP13, ADAMTS5, COX-2, and IL6 / OA SF-induced decline of SOX9 and COL2A1 expression: 24 h; for expression of NKX3-2: n = 3 donors (Figure 3A); for OA SF-induced expression of RUNX2, COL10A1, ALPL, MMP13, ADAMTS5, COX-2, and IL6: n = 3 donors (Figures 3B, 3C); for OA SF-induced decline of SOX9 and COL2A1 expression: n = 3 donors in triplicate (Figure 3A)
From the text: To further corroborate the potential OA-protective properties of peptides p[63−82] and p[113−132], we mimicked the OA environment by exposing non-OA-HACs to OA SF. Culturing non-OA-HACs in the presence of OA SF reduced their SOX9, COL2A1, and NKX3-2 expression (Figure 3A), whereas expression of RUNX2, COL10A1, ALPL, MMP13, ADAMTS5, COX-2, and IL6 was induced by OA SF (Figures 3B and 3C). This was accompanied by increased ALP activity and PGE2 secretion (Figures 3E and 3F). […] The OA SF-induced expression of RUNX2, COL10A1, ALPL, MMP13, ADAMTS5, COX-2, and IL6 was, without exception, mitigated by peptides p[63−82] and p[113−132] (Figures 3B and 3C). sGAG content of HAC cultures was unaltered by the peptides (Figure 3D). Retainment of peptide p[63−82] and p[113−132] bioactivity on HACs in an OA SF environment was also confirmed for ALP activity (Figure 3E) and PGE2 secretion (Figure 3F).
Figure 3 Bioactivity of peptides p[63−82] and p[113−132] on OA articular chondrocytes in OA synovial fluid (SF) […] (n = 3 individual donors, tested in triplicate) were exposed to 100 nM peptide p[63−82] or p[113−132] in the presence of OA SF (20% [v/v]; equal ratio mix from five individual donors). Control is 20% (v/v) 0.9% NaCl. Cells were cultured in these conditions for 24 h and analyzed for mRNA expression of indicated genes (normalized for 28S rRNA expression and relative to control condition). (A) Expression of SOX9, COL2A1, and NKX3-2 mRNAs. (B) Expression of RUNX2, COL10A1, and ALPL mRNAs. (C) Expression of MMP13, ADAMTS5, COX-2, and IL-6 mRNAs. (D) GAG content (normalized to total protein content) was determined in the same conditions. (E) ALP enzyme activity in cell lysates of the same conditions was determined and normalized for total protein content. (F) PGE2 levels in culture supernatants of the same conditions. Error bars represent mean ± SEM, and statistical significance for peptide conditions or control versus SF condition as determined by unpaired two-tailed Student’s t test is represented as ∗p < 0.05, ∗∗p < 0.01, and ∗∗∗p < 0.001.
Cartilage was obtained from total knee arthroplasty of end-stage (K&L grades 3−4) OA patients and from resected knee cartilage from cartilage repair procedures of non-OA patients. Medical ethical permission was received from the Maastricht University Medical Center Medical Ethical Committee (approval number 2017-0183). Chondrocytes were isolated using collagenase as described earlier.[27] The HACs were cultured until passage two in DMEM/F12 (Life Technologies), 10% fetal calf serum (FCS; Sigma-Aldrich), 1% antibiotic/antimycotic (Life Technologies), and 1% non-essential amino acids (Life Technologies) in a humidified atmosphere at 37°C, 5% CO2. SW1353 cells (ATCC HTB-94, short tandem repeat [STR] profiled)[54] were cultured in identical conditions. For experiments, cells were plated in technical triplicates at 30,000 cells/cm^2. BMP7 (R&D Systems) was used at 1 nM. OA SF was perioperatively collected from OA patients (same medical ethics statement [2017-0183] as for cartilage above) and was centrifuged to remove cells/debris. For experiments, an SF pool from five OA patients was prepared (equal volume ratios) and applied on cells in a 20% (v/v) concentration. For RNAi, scrambled and NKX3-2 siRNA duplexes (Table S1) were custom made (Eurogentec). Transfection (100 nM siRNA) in HACs was performed using HiPerFect (QIAGEN) according to the manufacturer’s protocol. The BRE reporter,[32] CAGA12 reporter,[33] or cytomegalovirus (CMV)-Gaussia as transfection control[55] were transfected (100 ng/μL) in SW1353 cells using FuGENE (Promega) according to the manufacturer’s protocol. […]

Substance	sGAG content of HAC cultures	retainment of bioactivity on ALP activity in OA SF environment	retainment of bioactivity on PGE2 secretion in OA SF environment	expression of NKX3-2	OA SF-induced expression of RUNX2, COL10A1, ALPL, MMP13, ADAMTS5, COX-2, and IL6	OA SF-induced decline of SOX9 and COL2A1 expression
H-AAYYSEGESAFPLNSYMNAT-OH [p[63−82]]	unaltered	confirmed	confirmed	induced by the peptides to levels higher than in the control condition	mitigated	counteracted to some extent
H-SVLYFDDSSNVILKKYRNMV-OH [p[113−132]]	unaltered	confirmed	confirmed	induced by the peptides to levels higher than in the control condition	mitigated	counteracted to some extent
